One assay addresses T1, radixin FERM domain (Mus musculus, UniProt P26043).
T1 construct: mouse cDNA encoding amino acid residues 1–310, which are 100% identical between mouse and human; GST (cleaved yes); made in house; host or cells: E. coli Rosetta (DE3) pLysS
As to the kind of experiment: Surface plasmon resonance, radixin FERM domain injected over immobilized peptides. Type of assay: binding. The settings on record: 37°; for Kd: equilibrium binding; for Binding of radixin FERM domain (in words): non-phosphorylated peptides, Fig. 1a, b. The source says:
(§1) Peptides representing human sequences and biotinylated at the N terminus were obtained from Peptide Protein Research Ltd (Hampshire, UK): CD5 pSDpSDpY, PDNSpSDpSDpYDLHGAQRL; CD5 SDSDY, PDNSSDSDYDLHGAQRL, CD6 pSDpSDpY, GpSDpSDpYEHYDFSAQ; CD6 SDSDY: GSDSDYEHYDFSAQ; control peptide (CD5), HVDNEYSQPPRNS; ICAM‐2 (NP_001093259 FERM binding site (amino acids 251–275): […].16
Recombinant GST‐tagged FERM domain of radixin constructed from mouse cDNA encoding amino acid residues 1–310, which are 100% identical between mouse and human in the pET49b(+) vector was kindly provided by Toshio Hakoshima (Nara Institute of Science and Technology, Japan).16 Radixin FERM was expressed in Rosetta (DE3) pLysS competent cells (Novagen, Madison, WI) and affinity purified using Glutathione Sepharose 4B (GE Healthcare, Chicago, IL). The GST tag was cleaved with HRV 3C protease (Novagen). Cleaved radixin FERM domains were then further purified using size exclusion chromatography.
For surface plasmon resonance analysis, CD5 pSDpSDpY, CD5 SDSDY, CD6 pSDpSDpY and CD6 SDSDY and ICAM‐2 peptides were immobilized on streptavidin‐coated CM5 chips in a BIAcore 3000 machine. Radixin FERM was injected over the immobilized peptides at 37°. Background signals of radixin FERM over a streptavidin‐coated flow cell were subtracted and equilibrium binding data were fitted using a 1 : 1 Langmuir binding model using GRAPHPAD PRISM 7 software.
For orientation: In SPR one partner is held on a chip, and binding of the other changes the refractive index at the surface.

In assay [1] the test system is ERM proteins and NHE‐RF 1 and 2. In words: Pulldown from Jurkat T-cell lysates with immobilized peptides and mass spectrometry: five ERM and NHE-RF proteins together. In kind it is binding.
Source text: as §1
Pulldowns and mass spectrometry have been described elsewhere.6 Briefly, peptides CD5 pSDpSDpY, CD6 pSDpSDpY or a control peptide derived from a region around a more proximal cytoplasmic tyrosine of CD5 were immobilized on magnetic beads and used to isolate interacting proteins from Jurkat T‐cell lysates. Interacting proteins were processed, then digested on a filter, and the peptides were loaded onto the Ultimate 300 RSLCnano high‐performance liquid chromatography (Dionex, Sunnyvale, CA) ‐tandem mass spectrometry Q Exactive Orbitrap machine using a 25 cm by 75 μm inner diameter picotip analytical column (New Objective, Woburn, MA) in the central proteomics facilities at the Sir William Dunn School of Pathology, University of Oxford. Spectra analysis was conducted using the MASCOT search engine.17

For assay [2], the target named is T2, radixin FERM domain (amino acid residues 1-310) (mouse, UniProt P26043 1-310).
T2 construct: also called Recombinant monomeric radixin FERM; FERM domain of radixin; source: E. coli Rosetta (DE3) pLysS, purified (Glutathione Sepharose 4B, HRV 3C cleavage, size exclusion chromatography)
T2 sequence (P26043 1-310): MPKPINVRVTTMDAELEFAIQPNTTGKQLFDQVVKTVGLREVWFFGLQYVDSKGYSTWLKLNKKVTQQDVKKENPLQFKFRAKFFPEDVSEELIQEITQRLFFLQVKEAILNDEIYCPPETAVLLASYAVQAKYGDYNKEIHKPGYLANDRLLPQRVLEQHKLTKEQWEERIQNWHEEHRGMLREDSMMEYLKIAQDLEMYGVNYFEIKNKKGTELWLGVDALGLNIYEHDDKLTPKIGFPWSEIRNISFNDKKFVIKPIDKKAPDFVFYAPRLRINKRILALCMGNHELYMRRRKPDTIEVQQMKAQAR
In words: SPR; biotinylated peptides immobilized on streptavidin-coated CM5 chips, BIAcore 3000; radixin FERM injected at 37°; streptavidin flow cell subtracted; equilibrium binding fitted with a 1:1 Langmuir model. The settings on record: both partners purified.

[3] abbreviates: SPR BIAcore 3000, biotinylated peptides on streptavidin-coated CM5 chip, 1:1 Langmuir fit, CD5 and CD6: three experiments, read-out: KD.

Where two headings read alike, the source gives them in different places. Square brackets hold non-standard residues; d marks the D form. Ends that are not written are not given here. Peptide text beside a SMILES is read from it. * marks the point of attachment. Biotin = O=C1N[C@H]2[C@H](CS[C@H]2CCCCC(=O)*)N1; pY = N[C@@H](Cc1ccc(OP(=O)(O)O)cc1)C(=O)O; pS = N[C@@H](COP(=O)(O)O)C(=O)O A value given as a limit tells only on which side of the number the result lay.

These results are taken from article PMC6376265, “A sequence conserved between CD5 and CD6 binds an FERM domain and exerts a restraint on T‐cell activation” (Immunology, 2018).

T1 sequence (P26043 1-310): as above

For the molecule `CSCC[C@H](NC(=O)[C@H](CCCNC(=N)N)NC(=O)[C@H](CCC(N)=O)NC(=O)[C@H](CCC(N)=O)NC(=O)[C@H](CCCNC(=N)N)NC(=O)[C@H](CC(C)C)NC(=O)[C@H](Cc1c[nH]cn1)NC(=O)CCCC[C@@H]1SC[C@@H]2NC(=O)N[C@@H]21)C(=O)NCC(=O)N[C@H](C(=O)N[C@@H](Cc1ccc(O)cc1)C(=O)NCC(=O)N[C@H](C(=O)N[C@@H](CCCNC(=N)N)C(=O)N[C@@H](C)C(=O)N[C@@H](C)C(=O)N[C@@H](Cc1c[nH]c2ccccc12)C(=O)N[C@@H](CCCNC(=N)N)C(=O)N[C@@H](CCCNC(=N)N)C(=O)N[C@@H](CC(C)C)C(=O)N1CCC[C@H]1C(=O)N[C@@H](CCC(N)=O)C(=O)N[C@@H](C)C(=O)N[C@@H](Cc1ccccc1)C(=O)N[C@@H](CCCNC(=N)N)C(=O)N1CCC[C@H]1C(=O)O)C(C)C)[C@@H](C)O` [ICAM-2, reference compound] (Biotin-HLRQQRMGTYGVRAAWRRLPQAFRP-OH; N-terminus and C-terminus assumed), the Kd at radixin FERM domain (setting [3]) was at least 0.2 µM. Turning to “HVDNEYSQPPRNS [control peptide, control peptide derived from a region around a more proximal cytoplasmic tyrosine of CD5]”, the “Isolation of the five proteins (in words)” value in assay [1] is given as “not identified”.

For the molecule `CC(C)C[C@H](NC(=O)[C@H](CCCNC(=N)N)NC(=O)[C@H](CCC(N)=O)NC(=O)[C@H](C)NC(=O)CNC(=O)[C@H](Cc1c[nH]cn1)NC(=O)[C@H](CC(C)C)NC(=O)[C@H](CC(=O)O)NC(=O)[C@H](Cc1ccc(OP(=O)(O)O)cc1)NC(=O)[C@H](CC(=O)O)NC(=O)[C@H](COP(=O)(O)O)NC(=O)[C@H](CC(=O)O)NC(=O)[C@H](COP(=O)(O)O)NC(=O)[C@H](CO)NC(=O)[C@H](CC(N)=O)NC(=O)[C@H](CC(=O)O)NC(=O)[C@@H]1CCCN1)C(=O)O` [CD5 pSDpSDpY] (H-PDNS[pS]D[pS]D[pY]DLHGAQRL-OH), the Kd on radixin FERM domain (setting [3]) was 1 to 2 µM; on radixin FERM domain (SPR, Fig. 1 panel c, peptides compared with ICAM-2, read-out: KD (Fig. 1c)), 1 µM. With `C[C@H](NC(=O)[C@H](CO)NC(=O)[C@H](Cc1ccccc1)NC(=O)[C@H](CC(=O)O)NC(=O)[C@H](Cc1ccc(O)cc1)NC(=O)[C@H](Cc1c[nH]cn1)NC(=O)[C@H](CCC(=O)O)NC(=O)[C@H](Cc1ccc(OP(=O)(O)O)cc1)NC(=O)[C@H](CC(=O)O)NC(=O)[C@H](COP(=O)(O)O)NC(=O)[C@H](CC(=O)O)NC(=O)[C@H](COP(=O)(O)O)NC(=O)CN)C(=O)N[C@@H](CCC(N)=O)C(=O)O` [CD6 pSDpSDpY] (H-G[pS]D[pS]D[pY]EHYDFSAQ-OH), at radixin FERM domain (setting [3]), the Kd is 0.5 µM. On to GSDSDYEHYDFSAQ [CD6 SDSDY], for which the “Binding of radixin FERM domain (in words)” value at radixin FERM domain (SPR) is “weak and did not reach saturation”.

With PDNSSDSDYDLHGAQRL [CD5 SDSDY], the “Binding of radixin FERM domain (in words)” value at radixin FERM domain (SPR) is “weak and did not reach saturation”.

B1: CD6 pSDpSDpY peptide (peptide)
peptide: Biotin-G[pS]D[pS]D[pY]EHYDFSAQ
notes: also called phosphorylated CD6 SDSDY peptide; source: synthetic peptide; bought: Peptide Protein Research Ltd
In turn, B1 showed a Kd in assay [2] of 0.5 to 2 µM.

Usually Kd stands for the concentration at which binding is half-saturated.
